Assay results taken from ChEMBL document CHEMBL1133817, “Discovery of novel, orally active dual NK1/NK2 antagonists” (Bioorg Med Chem Lett, 2001).
Calls of active or inactive are those of the source. No cut-off for these calls is given here.

Assays:
[1] = target: T1, Substance-K receptor (Oryctolagus cuniculus) (UniProt P79218); assay: Binding constant towards Tachykinin receptor 2 using BANK as agonist on rabbit pulmonary artery tissues.
T1 sequence (whole entry): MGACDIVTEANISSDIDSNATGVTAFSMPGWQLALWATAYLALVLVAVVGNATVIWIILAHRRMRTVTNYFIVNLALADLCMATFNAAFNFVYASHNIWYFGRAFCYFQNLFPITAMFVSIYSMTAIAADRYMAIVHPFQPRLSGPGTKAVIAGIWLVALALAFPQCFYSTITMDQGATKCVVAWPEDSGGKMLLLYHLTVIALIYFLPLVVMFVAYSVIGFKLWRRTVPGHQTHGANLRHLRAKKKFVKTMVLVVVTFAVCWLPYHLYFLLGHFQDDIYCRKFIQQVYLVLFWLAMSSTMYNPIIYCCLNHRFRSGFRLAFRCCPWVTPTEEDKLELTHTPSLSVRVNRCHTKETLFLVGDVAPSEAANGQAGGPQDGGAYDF

[2] = test system: Substance-P receptor (Oryctolagus cuniculus); assay: Binding constant towards tachykinin receptor 1 using ASMSP as agonist on rabbit pulmonary artery tissues.
[3] = target: T2, Neuromedin-K receptor (Homo sapiens, UniProt P29371); assay: Binding affinity against human cloned Tachykinin receptor 3 expressed in MEL cells; assay type: cell-based
T2 sequence (P29371 whole entry): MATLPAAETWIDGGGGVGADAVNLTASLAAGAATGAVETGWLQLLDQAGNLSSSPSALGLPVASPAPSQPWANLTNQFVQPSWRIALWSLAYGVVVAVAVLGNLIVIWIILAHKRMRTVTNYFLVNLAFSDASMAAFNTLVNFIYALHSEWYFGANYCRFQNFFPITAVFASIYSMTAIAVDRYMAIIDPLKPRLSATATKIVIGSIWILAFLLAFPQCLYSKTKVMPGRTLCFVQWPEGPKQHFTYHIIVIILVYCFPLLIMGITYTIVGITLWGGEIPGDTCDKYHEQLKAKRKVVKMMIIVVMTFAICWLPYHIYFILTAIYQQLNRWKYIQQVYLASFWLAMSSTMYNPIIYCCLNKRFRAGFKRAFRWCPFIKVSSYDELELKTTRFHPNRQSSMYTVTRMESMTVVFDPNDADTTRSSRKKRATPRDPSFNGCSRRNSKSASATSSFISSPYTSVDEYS

[4] = target: T3, Substance-P receptor (Homo sapiens, UniProt P25103); assay: Binding affinity against human cloned Tachykinin receptor 1 expressed in MEL cells; assay type: cell-based
[5] = target: T4, Substance-K receptor (Homo sapiens, UniProt P21452); assay: Binding affinity against human cloned Tachykinin receptor 2 expressed in MEL cells; assay type: cell-based
T4 sequence (P21452 whole entry): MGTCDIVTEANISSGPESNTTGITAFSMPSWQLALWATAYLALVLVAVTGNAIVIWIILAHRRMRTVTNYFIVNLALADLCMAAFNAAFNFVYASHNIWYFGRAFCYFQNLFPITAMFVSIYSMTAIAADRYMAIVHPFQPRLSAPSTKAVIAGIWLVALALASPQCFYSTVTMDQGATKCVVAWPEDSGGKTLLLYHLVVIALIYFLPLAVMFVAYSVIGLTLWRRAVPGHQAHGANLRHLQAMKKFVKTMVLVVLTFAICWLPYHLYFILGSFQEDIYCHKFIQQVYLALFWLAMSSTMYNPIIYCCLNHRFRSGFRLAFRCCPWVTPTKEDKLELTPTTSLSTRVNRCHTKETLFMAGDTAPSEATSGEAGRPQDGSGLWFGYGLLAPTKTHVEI

[6] = target: T3, Substance-P receptor; conditions: Artery
Description: (§1) Binding constant towards Tachykinin receptor 1 using ASMSP as agonist on human pulmonary artery tissues

[7] = target: T5, Substance-K receptor (Homo sapiens) (UniProt P21452); conditions: Bronchus
T5 sequence (whole entry): T4 sequence (P21452 whole entry)
Description: Binding constant towards Tachykinin receptor 2 using NKA as agonist on human bronchus

[8] = target: T3, Substance-P receptor; conditions: Oryctolagus cuniculus; Artery
Description: Binding constant towards Tachykinin receptor 1 using ASMSP as agonist on rabbit pulmonary artery tissues; NA is not active

[9] = target: T1, Substance-K receptor (Oryctolagus cuniculus); assay: Binding constant towards Tachykinin receptor 2 using BANK as agonist on rabbit pulmonary artery tissues; NA is not active
[10] = target: T3, Substance-P receptor; conditions: Artery; remark: listed apart in the source
Description: as §1

T3 sequence (P25103 whole entry): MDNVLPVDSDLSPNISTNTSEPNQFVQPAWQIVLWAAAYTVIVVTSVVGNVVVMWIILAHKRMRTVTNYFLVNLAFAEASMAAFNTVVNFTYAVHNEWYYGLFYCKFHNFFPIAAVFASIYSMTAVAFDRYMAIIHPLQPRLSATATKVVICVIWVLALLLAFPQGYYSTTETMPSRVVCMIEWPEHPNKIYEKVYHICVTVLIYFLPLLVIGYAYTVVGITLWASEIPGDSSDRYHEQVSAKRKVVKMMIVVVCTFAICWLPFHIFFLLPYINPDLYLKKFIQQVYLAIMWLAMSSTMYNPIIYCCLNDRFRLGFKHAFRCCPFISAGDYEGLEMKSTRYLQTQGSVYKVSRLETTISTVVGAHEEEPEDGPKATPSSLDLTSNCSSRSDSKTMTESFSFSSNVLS

Row | pKB [1] | pKB [2] | SMILES | further results
1 | 8.21 | 7.3 | CNC(=O)c1ccccc1C1CCN(CC[C@H](CN(C)C(=O)c2cccc3ccccc23)c2ccc(Cl)c(Cl)c2)CC1 | –
2 | 7.35 | 7.43 | CN(C[C@@H](CCN1CCC(c2ccccc2[S+](C)[O-])CC1)c1ccc(Cl)c(Cl)c1)C(=O)c1cc(S(C)(=O)=O)cc2ccccc12 (some centres not stated) | –
3 | 9.3 | – | CC(=O)NC1(c2ccccc2)CCN(CC[C@H](CN(C)C(=O)c2ccccc2)c2ccc(Cl)c(Cl)c2)CC1 | –
4 | 7.82 | 7.69 | CN(C[C@@H](CCN1CCC(c2cccnc2[S+](C)[O-])CC1)c1ccc(Cl)c(Cl)c1)C(=O)c1cccc2ccccc12 (some centres not stated) | –
5 | 7.7 | 7.95 | COc1cc(C(=O)N(C)C[C@@H](CCN2CCC(c3ccccc3[S+](C)[O-])CC2)c2ccc(Cl)c(Cl)c2)c2ccccc2c1 (some centres not stated) | –
6 | 6.45 | 7.84 | CN(C[C@@H](CCN1CCC(c2ccccc2[S+](C)[O-])CC1)c1ccc(Cl)c(Cl)c1)C(=O)c1cc(C(F)(F)F)cc2ccccc12 (some centres not stated) | –
7 | 7.24 | 7.24 | C=C(C)c1cc(C(=O)N(C)C[C@@H](CCN2CCC(c3ccccc3[S+](C)[O-])CC2)c2ccc(Cl)c(Cl)c2)c2ccccc2c1 (some centres not stated) | –
8 | 8.8 | – | CCN1C(=O)c2ccccc2[C@H]1[C@@H](CCN1CCC(c2ccccc2[S@+](C)[O-])CC1)c1ccc(Cl)c(Cl)c1 | –
9 | 6.76 | 7.4 | CN(C[C@@H](CCN1CCC(c2ccc([S+](C)[O-])cc2)CC1)c1ccc(Cl)c(Cl)c1)C(=O)c1cccc2ccccc12 (some centres not stated) | –
10 | 7.1 | – | CN(C[C@H](CCN1CCC(c2ccccc2[S+](C)[O-])CC1)c1ccc(Cl)c(Cl)c1)C(=O)c1cc(C#N)cc2ccccc12 (some centres not stated) | pKB [8]: inactive
11 | – | 6.03 | CN(C[C@@H](CCN1CCC(c2ccccc2C(F)(F)F)CC1)c1ccc(Cl)c(Cl)c1)C(=O)c1cccc2ccccc12 | pKB [9]: inactive
12 | 8.18 | 7.89 | CN(C[C@@H](CCN1CCC(c2ccccc2[S+](C)[O-])CC1)c1ccc(Cl)c(Cl)c1)C(=O)c1cccc2ccccc12 (some centres not stated) | –
13 | 7.92 | 7.34 | CN(C[C@@H](CCN1CCC(N2CCCNC2=O)CC1)c1ccc(Cl)c(Cl)c1)C(=O)c1cccc2ccccc12 | –
14 | 6.99 | 8.42 | CN(C[C@@H](CCN1CCC(c2ccccc2[S+](C)[O-])CC1)c1ccc(Cl)c(Cl)c1)C(=O)c1cc(CC#N)cc2ccccc12 (some centres not stated) | –
15 | 7.29 | 8.03 | Cc1cc(C(=O)N(C)C[C@@H](CCN2CCC(c3ccccc3[S+](C)[O-])CC2)c2ccc(Cl)c(Cl)c2)c2ccccc2c1 (some centres not stated) | –
16 | 8.18 | 7.18 | CC(=O)NC1(c2ccccc2)CCN(CC[C@H](CN(C)C(=O)c2cccc3ccccc23)c2ccc(Cl)c(Cl)c2)CC1 | –
17 | 7.31 | 5.17 | CN(C)C(=O)c1cc(C(=O)N(C)C[C@@H](CCN2CCC(c3ccccc3[S+](C)[O-])CC2)c2ccc(Cl)c(Cl)c2)c2ccccc2c1 (some centres not stated) | –
18 | 7.67 | 8.15 | CN(C[C@@H](CCN1CCC(c2ccccc2[S+](C)[O-])CC1)c1ccc(Cl)c(Cl)c1)C(=O)c1cc(Br)cc2ccccc12 (some centres not stated) | –
19 | 6.86 | 5.68 | CN(C[C@@H](CCN1CCC(c2ccccc2[S+](C)[O-])CC1)c1ccc(Cl)c(Cl)c1)C(=O)c1cc(C(=O)O)cc2ccccc12 (some centres not stated) | –
20 | 8.39 | – | CN(C[C@@H](CCN1CCC(c2ccccc2[S@+](C)[O-])CC1)c1ccc(Cl)c(Cl)c1)C(=O)c1cc(C#N)cc2ccccc12 (stereo in doubt; 4b) | –

Row | pKB [1] | pKB [2] | SMILES | further results
21 | 8.41 | 6.82 | CNC(=O)C1(N2CCCNC2=O)CCN(CC[C@H](CN(C)C(=O)c2cccc3ccccc23)c2ccc(Cl)c(Cl)c2)CC1 | –
22 | 7.34 | 6.31 | CN(C[C@@H](CCN1CCC(c2ccccc2[S+](C)[O-])CC1)c1ccc(Cl)c(Cl)c1)C(=O)c1ccc(C#N)c2ccccc12 (some centres not stated) | –
23 | 8.44 | 6.42 | CNC(=O)C1(N2CCCCC2=O)CCN(CC[C@H](CN(C)C(=O)c2cccc3ccccc23)c2ccc(Cl)c(Cl)c2)CC1 | –
24 | 7.44 | 7.71 | C#Cc1cc(C(=O)N(C)C[C@@H](CCN2CCC(c3ccccc3[S+](C)[O-])CC2)c2ccc(Cl)c(Cl)c2)c2ccccc2c1 (some centres not stated) | –
25 | 9.03 | 8.16 | CN(C[C@@H](CCN1CCC(c2ccccc2[S+](C)[O-])CC1)c1ccc(Cl)c(Cl)c1)C(=O)c1cc([N+](=O)[O-])cc2ccccc12 (some centres not stated) | –
26 | – | 6.28 | CN(C[C@@H](CCN1CCC(N2C(=O)CCCC2=O)CC1)c1ccc(Cl)c(Cl)c1)C(=O)c1cccc2ccccc12 | pKB [9]: inactive
27 | 7.54 | 6.92 | CN(C[C@@H](CCN1CCC(O)(c2ccc([S+](C)[O-])cc2)CC1)c1ccc(Cl)c(Cl)c1)C(=O)c1cccc2ccccc12 (some centres not stated) | –
28 | 7.32 | 7.3 | CN(C[C@@H](CCN1CCC(O)(c2ccccc2[S+](C)[O-])CC1)c1ccc(Cl)c(Cl)c1)C(=O)c1cccc2ccccc12 (some centres not stated) | –
29 | – | 6.98 | CN(C[C@@H](CCN1CCC(c2ccccn2)CC1)c1ccc(Cl)c(Cl)c1)C(=O)c1cccc2ccccc12 | pKB [9]: inactive
30 | 7.02 | 7.54 | CN(C[C@@H](CCN1CCC(c2ccccc2[S+](C)[O-])CC1)c1ccc(Cl)c(Cl)c1)C(=O)c1cc(S(N)(=O)=O)cc2ccccc12 (some centres not stated) | –
31 | 8.1 | 6.98 | CN(C[C@@H](CCN1CCC2(CC1)C[S+]([O-])c1ccccc12)c1ccc(Cl)c(Cl)c1)C(=O)c1cccc2ccccc12 (some centres not stated) | –
32 | 7.1 | 7.15 | CN(C[C@@H](CCN1CCC(c2ccccc2[S+](C)[O-])CC1)c1ccc(Cl)c(Cl)c1)C(=O)c1cc(Cl)cc2ccccc12 (some centres not stated) | –
33 | 8.26 | – | CN(C[C@@H](CCN1CCC(c2ccccc2[S@+](C)[O-])CC1)c1ccc(Cl)c(Cl)c1)C(=O)c1cc(C#N)cc2ccccc12 (stereo in doubt) | pKB [10]: 8.9; pKB [7]: 7.5
34 | 8.23 | 6.78 | CN(C)C(=O)C1(N2CCCCC2=O)CCN(CC[C@H](CN(C)C(=O)c2cccc3ccccc23)c2ccc(Cl)c(Cl)c2)CC1 | –
35 | 7.55 | 7.81 | CN(C[C@@H](CCN1CCC(c2ccccc2S(C)(=O)=O)CC1)c1ccc(Cl)c(Cl)c1)C(=O)c1cccc2ccccc12 | –
36 | 8.15 | 7.9 | CN(C[C@@H](CCN1CCC(c2ccccc2[S+](C)[O-])CC1)c1ccc(Cl)c(Cl)c1)C(=O)c1cc(F)cc2ccccc12 (some centres not stated) | –
37 | 7.17 | 7.41 | CC(=O)c1cc(C(=O)N(C)C[C@@H](CCN2CCC(c3ccccc3[S+](C)[O-])CC2)c2ccc(Cl)c(Cl)c2)c2ccccc2c1 (some centres not stated) | –
38 | 7.62 | 8.55 | CN(C[C@@H](CCN1CCC(c2ccccc2[S+](C)[O-])CC1)c1ccc(Cl)c(Cl)c1)C(=O)c1cccc2cc(C#N)ccc12 (some centres not stated) | –
39 | 8.51 | 8.13 | CN(C[C@@H](CCN1CCC(c2ccccc2[S+](C)[O-])CC1)c1ccc(Cl)c(Cl)c1)C(=O)c1cccc2ccc(C#N)cc12 (some centres not stated) | –

Row | SMILES | pKB [1] | pKB [2] | further results
40 | COc1cc(C(=O)N2CC[C@](CCN3CCC(C(N)=O)(c4ccccc4)CC3)(c3ccc(Cl)c(Cl)c3)C2)cc(OC)c1OC | 6.7 | – | Ki [3]: 200 nM; Ki [4]: 0.3 nM; Ki [5]: 1 nM; pKB [6]: 6.9; pKB [7]: 6.4
